Laboratory results taken from patent US20230027066A1 (Urovant Sciences GmbH, priority 2019, published 2023).

Tested on: men and women with overactive bladder
Assay: Phase 3 study of vibegron 75 mg vs placebo and tolterodine ER 4 mg, 12 weeks, efficacy (voiding and urine volume diary)
Type: in vivo, human
Settings: for Daily Urgency Episodes: Reduction from Baseline at Week 12, LS Mean: vibegron 75 mg, tolterodine ER 4 mg; for Patients with 100% Reduction in UUI from Baseline to Week 12, Unadjusted n (%) / Patients with at Least 75% Reduction in UUI from Baseline to Week 12, Unadjusted n (%) / Patients with 100% Reduction in UUI from Baseline to Week 12, Adjusted n (%) / Patients with at Least 75% Reduction in UUI from Baseline to Week 12, Adjusted n (%): FAS-I; for Patients with 100% Reduction in UUI from Baseline to Week 12, Adjusted n (%) / Patients with at Least 75% Reduction in UUI from Baseline to Week 12, Adjusted n (%): MI for missing values; for 75% UUI responders, Active-Placebo CMH Difference / 100% UUI responders, Active-Placebo CMH Difference: stratified by sex; for Urgency, Change from Baseline LS Mean / Urgency, LS Mean Difference active - Placebo: baseline to Week 12
Method: Enrollment of patients included individuals with OAB Wet (those with UUI, the involuntary loss of urine accompanied by urgency) and OAB Dry (those without UUI). A total of 1,518 patients were randomized across 215 study sites into one of three groups for a 12-week treatment period.
The study consisted of a Screening Period (1 to 5 weeks), a single-blind Run-in Period (2 weeks), a randomized double-blind Treatment Period (12 weeks), and a Follow-up Period (4 weeks).
Tolterodine ER 4 mg was the active control. […] Between the Baseline and Week 12 Visits, patients had study assessments at Week 4 and Week 8.
The Patient Voiding Diary was used by participants (via the eDiary or paper Diary) to record the frequency of daily OAB symptoms including all micturitions, urgency, incontinence, and main reason for incontinence by selecting the respective box for each symptom occurring during the course of a given day and night.
Urine volume data were collected separately by patients using the Urine Volume component of the eDiary, or the paper Urine Volume Chart. The Urine Volume Chart is a tool used in clinical practice and clinical investigation to assess voiding functions over a 24-hour period and is regarded as a useful instrument in the investigation of patients with voiding symptoms. Urine volume may be collected during any one (1) of the 7 Diary Days prior to the visit, and it should be recorded for ˜24 hours starting from the time the patient gets up for the day and continues until the time the patient gets up for the day on the next day.
For the purpose of this study, the number of micturitions was defined as the number of times a patient has voided in the toilet as indicated on the Patient Voiding Diary. Average daily micturitions were calculated using the daily entries in the Patient Voiding Diary, which was completed over the 7 days prior to each study visit. Average daily number of micturitions were calculated as the total number of micturitions that occurred on a Complete Diary Day divided by the number of Complete Diary Days in the Patient Voiding Diary. A complete diary day required confirmation by the patient in the Patient Voiding Diary that all voids and leakages had been recorded for the diary day. Baseline was defined as the average number of micturitions occurring during the last evaluable diary prior to the Baseline Visit.
The number of UUI episodes was defined as the number of times a patient had checked “urge” as the reason for accidental urine leakage. Average daily UUI episodes at each study visit were calculated in the same manner as described above for the micturition endpoint. The UUI endpoint were analyzed using only OAB Wet patients.
For the analysis of the co-primary endpoints (change from baseline in average number of daily micturitions at Week 12 and change from baseline in average number of daily urge urinary incontinence episodes at Week 12, and placebo adjustment of each), a mixed model for repeated measure (MMRM) with restricted maximum likelihood estimation was used. This model corrects for dropout and accounts for the fact that measurements taken on the same patient over time tend to be correlated by using all available information on patients within the same covariate set to derive an estimate of the treatment effect for a dropout-free population. The analysis model for each efficacy endpoint includes terms for treatment, visit, OAB Type (Wet vs Dry), Sex (Female vs Male), Region (US vs Rest of World), baseline score, and interaction of visit by treatment.
Primary inferences were drawn from treatment differences for the changes from baseline derived from the MMRM models at Week 12. As part of secondary objectives, the treatment differences for each post baseline visit were also derived using the same MMRM model. […]

[1] = 50% Total Incontinence Responders, Week 2
[2] = 50% Total Incontinence Responders, Week 4
[3] = 50% Total Incontinence Responders, Week 8
[4] = 50% Total Incontinence Responders, Week 12
[5] = Cox model with sex as covariate, >1 = more treated subjects attain reduction
[6] = Dry population, baseline to Week 2

Cc1ccc(O)c([C@H](CCN(C(C)C)C(C)C)c2ccccc2)c1 [Tolterodine ER, tolterodine, reference compound]
Average Volume Voided per Micturition, Mean (SD) [1]: 167.1 (75.27)
Average daily number of urgency episodes, Mean (SD) [1]: 5.68 (3.690)
Change from Baseline in Average Daily Number of Urgency Episodes, LS Mean (SE) [1]: −2.1 (0.17)
Change from Baseline in Average Volume Voided per Micturition, LS Mean [1]: 16.9 (4.12)
Change from baseline in Percent Dry Diary Days, LS Mean [1]: 23.9 (2.33) Percent
Percent Dry Diary Days, Mean (SD) [1]: 28.44 (35.758) Percent
Average Volume Voided per Micturition, Mean (SD) [2]: 171.3 (73.88)
Average daily number of urgency episodes, Mean (SD) [2]: 5.18 (3.663)
Change from Baseline in Average Daily Number of Urgency Episodes, LS Mean (SE) [2]: −2.6 (0.18)
Change from Baseline in Average Volume Voided per Micturition, LS Mean [2]: 16.3 (4.38)
Change from baseline in Percent Dry Diary Days, LS Mean [2]: 32.6 (2.69) Percent
Percent Dry Diary Days, Mean (SD) [2]: 36.82 (40.267) Percent
Average Volume Voided per Micturition, Mean (SD) [3]: 177.7 (76.78)
Average daily number of urgency episodes, Mean (SD) [3]: 4.68 (3.707)
Change from Baseline in Average Daily Number of Urgency Episodes, LS Mean (SE) [3]: −3.1 (0.21)
Change from Baseline in Average Volume Voided per Micturition, LS Mean [3]: 24.8 (4.56)
Change from baseline in Percent Dry Diary Days, LS Mean [3]: 40.0 (2.76) Percent
Percent Dry Diary Days, Mean (SD) [3]: 44.86 (40.529) Percent
Average Volume Voided per Micturition, Mean (SD) [4]: 175.4 (77.58)
Average daily number of urgency episodes, Mean (SD) [4]: 4.02 (3.539)
Change from Baseline in Average Daily Number of Urgency Episodes, LS Mean (SE) [4]: −3.6 (0.22)
Change from Baseline in Average Volume Voided per Micturition, LS Mean [4]: 21.1 (4.74)
Change from baseline in Percent Dry Diary Days, LS Mean [4]: 49.7 (2.68) Percent
Percent Dry Diary Days, Mean (SD) [4]: 55.43 (37.734) Percent
Average Volume Voided per Micturition, Mean (SD) (75% UUI Responders, Week 2): 170.6 (77.20)
Average daily number of urgency episodes, Mean (SD) (75% UUI Responders, Week 2): 5.37 (3.577)
Change from Baseline in Average Volume Voided per Micturition, LS Mean (75% UUI Responders, Week 2): 17.5 (4.96)
Change from baseline in average daily number of urgency episodes, LS Mean (75% UUI Responders, Week 2): −2.3 (0.21)
Average Volume Voided per Micturition, Mean (SD) (75% UUI Responders, Week 4): 174.8 (73.04)
Average daily number of urgency episodes, Mean (SD) (75% UUI Responders, Week 4): 4.93 (3.675)
Change from Baseline in Average Volume Voided per Micturition, LS Mean (75% UUI Responders, Week 4): 16.2 (5.27)
Change from baseline in average daily number of urgency episodes, LS Mean (75% UUI Responders, Week 4): −2.8 (0.23)
Average Volume Voided per Micturition, Mean (SD) (75% UUI Responders, Week 8): 182.1 (77.27)
Average daily number of urgency episodes, Mean (SD) (75% UUI Responders, Week 8): 4.42 (3.677)
Change from Baseline in Average Volume Voided per Micturition, LS Mean (75% UUI Responders, Week 8): 26.1 (5.51)
Change from baseline in average daily number of urgency episodes, LS Mean (75% UUI Responders, Week 8): −3.3 (0.25)
Average Volume Voided per Micturition, Mean (SD) (75% UUI Responders, Week 12): 177.3 (77.70)
Average daily number of urgency episodes, Mean (SD) (75% UUI Responders, Week 12): 3.67 (3.542)
Change from Baseline in Average Volume Voided per Micturition, LS Mean (75% UUI Responders, Week 12): 19.1 (5.83)
Change from baseline in average daily number of urgency episodes, LS Mean (75% UUI Responders, Week 12): −3.9 (0.27)
Daily Urgency Episodes: Reduction from Baseline at Week 12, LS Mean (Age ≥65 years): −2.1
Daily Urgency Episodes: Reduction from Baseline at Week 12, LS Mean (Age ≥75 years): −2.4
Daily Urgency Episodes: Reduction from Baseline at Week 12, LS Mean (All patients): −2.5
Patients with 100% Reduction in UUI from Baseline to Week 12, Unadjusted n (%) (Baseline Number of UUI <3): 62 (33.2) n (%)
Patients with at Least 75% Reduction in UUI from Baseline to Week 12, Unadjusted n (%) (Baseline Number of UUI <3): 98 (52.4) n (%)
Patients with 100% Reduction in UUI from Baseline to Week 12, Adjusted n (%) (Baseline Number of UUI <3): 54 (29.0) n (%)
Patients with at Least 75% Reduction in UUI from Baseline to Week 12, Adjusted n (%) (Baseline Number of UUI <3): 91 (48.4) n (%)
75% UUI responders, Active-Placebo CMH Difference (Baseline Number of UUI <3): 10.1
100% UUI responders, Active-Placebo CMH Difference (Baseline Number of UUI <3): 1.5
Patients with 100% Reduction in UUI from Baseline to Week 12, Unadjusted n (%) (Baseline Number of UUI ≥3): 23 (17.4) n (%)
Patients with at Least 75% Reduction in UUI from Baseline to Week 12, Unadjusted n (%) (Baseline Number of UUI ≥3): 54 (40.9) n (%)
Patients with 100% Reduction in UUI from Baseline to Week 12, Adjusted n (%) (Baseline Number of UUI ≥3): 13 (9.6) n (%)
Patients with at Least 75% Reduction in UUI from Baseline to Week 12, Adjusted n (%) (Baseline Number of UUI ≥3): 44 (33.7) n (%)
75% UUI responders, Active-Placebo CMH Difference (Baseline Number of UUI ≥3): 8.4
100% UUI responders, Active-Placebo CMH Difference (Baseline Number of UUI ≥3): 2.6
Hazard Ratio, 50% reduction in urgency episodes, Compared to Placebo Using Proportional Hazards [5]: 1.225
Hazard Ratio, 100% reduction in UUI episodes, Compared to Placebo Using Proportional Hazards [5]: 1.141
Urgency, Change from Baseline LS Mean (Dry population, Age <65): −2.3 (57)
Urgency, LS Mean Difference active - Placebo (Dry population, Age <65): −0.8
Urgency, Change from Baseline LS Mean (Dry population, Age ≥65): −1.5 (35)
Urgency, LS Mean Difference active - Placebo (Dry population, Age ≥65): 0.2
Average daily number of urgency episodes, Mean (SD) (Dry population, Week 2): 6.87 (4.260)
Change from baseline in average daily number of urgency episodes, LS Mean (Dry population, Week 2): −1.4 (0.27)
Urgency episodes, Active - Placebo LS Mean Difference (Dry population, Week 2): −0.6 (0.37)
Average daily number of urgency episodes, Mean (SD) (Dry population, Week 4): 7.03 (4.865)
Change from baseline in average daily number of urgency episodes, LS Mean (Dry population, Week 4): −1.6 (0.29)
Urgency episodes, Active - Placebo LS Mean Difference (Dry population, Week 4): −0.7 (0.40)
Average daily number of urgency episodes, Mean (SD) (Dry population, Week 8): 6.25 (4.957)
Change from baseline in average daily number of urgency episodes, LS Mean (Dry population, Week 8): −2.2 (0.34)
Urgency episodes, Active - Placebo LS Mean Difference (Dry population, Week 8): −1.0 (0.46)
Average daily number of urgency episodes, Mean (SD) (Dry population, Week 12): 6.56 (5.480)
Change from baseline in average daily number of urgency episodes, LS Mean (Dry population, Week 12): −2.0 (0.36)
Urgency episodes, Active - Placebo LS Mean Difference (Dry population, Week 12): −0.4 (0.49)
Patients with at Least 50% Reduction in Urgency Episodes, Adjusted (%) [6]: 16.3%
Patients with at Least 50% Reduction in Urgency Episodes, Adjusted n [6]: 16
Patients with at Least 50% Reduction in Urgency Episodes, Unadjusted (%) [6]: 16.3%
Patients with at Least 50% Reduction in Urgency Episodes, Unadjusted n [6]: 16
